Article PMC8591201, “Anti-Tumor Activity of AZD4547 Against NTRK1 Fusion Positive Cancer Cells Through Inhibition of NTRKs” (Frontiers in Oncology, 2021)

How the values were obtained:
in vitro = experiment: in vitro; parameters: CellTiter-Glo viability of parental Ba/F3 cells, counter-screen; settings: mouse, parental ba/f3 cells
Procedure: To obtain the GI50 value of a substance, cell viability was measured using MTT (G4000, Promega, USA) for KM12(Luc) cell and Cell titer glo (G7572, Promega, USA) for other cell lines. For adherent cells, cells were seeded at 5,000 cells/well in a 96-well plate and treated with a substance one day after cell seeding. For suspension cells, 10,000 cells/well were seeded and the substance was treated after 4 h stabilization of cells. The substance was treated at 10 points of 1:3 serial dilution (0–100 µmol/L) for 72 h. For MTT assay, 15 µL dye solution was added to each well and incubated 4 h at 37°C. 100 µL of solubilization solution was added and followed 1 hr incubation. Absorbance at 570 nm of each well was recorded using EnVision microplate reader (Perkin Elmer). For Cell titer glo assay, Cell titer glo reagent was treated in each well and measured the luminescence by EnVision microplate reader (Perkin Elmer). Viable cells in each well were normalized by using 0.5% DMSO-treated wells (100%). The inhibitor dose−response curve was fitted and GI50 values were calculated using Prism 7.0 software (GraphPad). All assays were performed in duplicate and the standard deviation (SD) was determined from two independent experiments. […] Cell viability after 72 h exposure to the indicated inhibitors, determined by using a cell titer glo assay in duplicate mode. […]

TRKA G595R = system: T1, TRKA G595R; experiment: cells; parameters: species or system Ba/F3; CellTiter-Glo anti-proliferation of Ba/F3 cells transformed with ETV6-NTRK fusions; settings: Mus musculus, BaF3, 72 h, read-out: LOXO195 GI50
T1 construct: ETV6 (1-336)-NTRK1 kinase domain (434-790) fusion expressed in Ba/F3
Procedure: (§1) To obtain the GI50 value of a substance, cell viability was measured using MTT (G4000, Promega, USA) for KM12(Luc) cell and Cell titer glo (G7572, Promega, USA) for other cell lines. For adherent cells, cells were seeded at 5,000 cells/well in a 96-well plate and treated with a substance one day after cell seeding. For suspension cells, 10,000 cells/well were seeded and the substance was treated after 4 h stabilization of cells. The substance was treated at 10 points of 1:3 serial dilution (0–100 µmol/L) for 72 h. For MTT assay, 15 µL dye solution was added to each well and incubated 4 h at 37°C. 100 µL of solubilization solution was added and followed 1 hr incubation. Absorbance at 570 nm of each well was recorded using EnVision microplate reader (Perkin Elmer). For Cell titer glo assay, Cell titer glo reagent was treated in each well and measured the luminescence by EnVision microplate reader (Perkin Elmer). Viable cells in each well were normalized by using 0.5% DMSO-treated wells (100%). The inhibitor dose−response curve was fitted and GI50 values were calculated using Prism 7.0 software (GraphPad). All assays were performed in duplicate and the standard deviation (SD) was determined from two independent experiments. To investigate the inhibitory activity of AZD4547 against clinically relevant TRK mutants which have resistance to the known TRK inhibitors ([8], [44]), we established Ba/F3 cell lines harboring the ETV6-NTRKs fusion genes (NTRK1, NTRK1G595R, NTRK1G667A, NTRK1G667C, NTRK1G667S and NTRK2) ( Supplementary Figure 2 ). The mutation status of each established cell line was confirmed by sequencing of its cDNA ( Supplementary Figure 2 ). The anti-proliferation activity of AZD4547 was then measured in each cell line ( Figure 2A and Table S2 ). […] However, AZD4547 has no inhibitory activity against Ba/F3 harboring clinically relevant TRKs mutants including TRKA G595R, TRKA G667S, TRKA G667C and TRKA G667A. We next evaluated if AZD4547 is capable of suppressing the phosphorylation of TRKA/B in Ba/F3 cell lines ( Figure 2B ). […] Also, phosphorylation of TRKA/B is almost completely abolished using 1 µM of AZD4547. […] (A) Summary of GI50s of AZD4547 against Ba/F3: TRKA mutants or TRKB. Cell viability after 72 h exposure to the indicated inhibitors, determined by using a cell titer glo assay in duplicate mode. Data was plotted as mean GI50 ± SD of two independent experiments. (B) AZD4547 inhibits phosphorylation of TRKA/B and PLC-gamma in Ba/F3 harboring TRKA and TRKB, respectively. […] Data are representative of three independent experiments.

TRKB = system: T2, TRKB; experiment: cells; parameters: species or system Ba/F3; CellTiter-Glo anti-proliferation of Ba/F3 cells transformed with ETV6-NTRK fusions; settings: Mus musculus, BaF3, 72 h, read-out: LOXO195 GI50
T2 construct: ETV6 (1-336)-NTRK2 kinase domain (455-822) fusion expressed in Ba/F3
Procedure: as §1

TRKA G667S = system: T3, TRKA G667S; experiment: cells; parameters: species or system Ba/F3; CellTiter-Glo anti-proliferation of Ba/F3 cells transformed with ETV6-NTRK fusions; settings: Mus musculus, BaF3, 72 h, read-out: LOXO195 GI50
T3 construct: ETV6 (1-336)-NTRK1 kinase domain (434-790) fusion expressed in Ba/F3
Procedure: as §1

TRKA G667A = system: T4, TRKA G667A; experiment: cells; parameters: species or system Ba/F3; CellTiter-Glo anti-proliferation of Ba/F3 cells transformed with ETV6-NTRK fusions; settings: Mus musculus, BaF3, 72 h, read-out: LOXO195 GI50
T4 construct: ETV6 (1-336)-NTRK1 kinase domain (434-790) fusion expressed in Ba/F3
Procedure: as §1

TRKA G667C = system: T5, TRKA G667C; experiment: cells; parameters: species or system Ba/F3; CellTiter-Glo anti-proliferation of Ba/F3 cells transformed with ETV6-NTRK fusions; settings: Mus musculus, BaF3, 72 h, read-out: LOXO195 GI50
T5 construct: ETV6 (1-336)-NTRK1 kinase domain (434-790) fusion expressed in Ba/F3
Procedure: as §1

TRKA = system: T6, TRKA; experiment: cells; parameters: species or system Ba/F3; CellTiter-Glo anti-proliferation of Ba/F3 cells transformed with ETV6-NTRK fusions; settings: Mus musculus, BaF3, 72 h, read-out: LOXO195 GI50
T6 construct: ETV6 (1-336)-NTRK1 kinase domain (434-790) fusion expressed in Ba/F3
Procedure: as §1

## C[C@@H]1CCc2ncc(F)cc2[C@H]2CCCN2c2ccn3ncc(c3n2)C(=O)N1 [LOXO195]
In vitro
  CC50 at 72 h: > 2000 nM
TRKA G595R
  GI50: […]
TRKB
  GI50: […]
TRKA G667S
  GI50: 35.5 ± 2.5 nM
TRKA G667A
  GI50: 24.1 ± 8.3 nM
TRKA G667C
  GI50: […]
TRKA
  GI50: […]
